Experimental data as given in ChEMBL document CHEMBL1201862, “PubChem BioAssay data set” (2004).
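Cultured in 96-well plates, cells were exposed to test compound for 48 hours across five concentrations. GI50 is the concentration that inhibits growth by half.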 The source made the active and inactive calls. Rule as the data show it: active = GI50 up to about 1.1 µM and inactive = higher.

What was measured:
Assay in all cases: inhibition of tumour cell growth, NCI panel, 48 h
[1] = test system: OVCAR-3
[2] = test system: NCI-H226
[3] = test system: EKVX
[4] = test system: UACC-257
[5] = test system: IGROV-1
[6] = test system: SK-OV-3
[7] = test system: HL-60
[8] = test system: SK-MEL-2
[9] = test system: MOLT-4
[10] = test system: HT-29
[11] = test system: UACC-62
[12] = test system: HCC 2998
[13] = test system: M14
[14] = test system: OVCAR-4
[15] = test system: NCI-H23
[16] = test system: SK-MEL-28
[17] = test system: Malme-3M
[18] = test system: CAKI-1
[19] = test system: RPMI-8226

Question: How did the GI50 [1] turn out when `CN(C)c1n/c(=N/c2ccc(/N=c3\nc(N(C)C)ss3)cc2)ss1` was run?
Answer: 28.2 µM (inactive)

Question: What about the GI50 [2] of the same compound?
Answer: 56.5 µM (inactive)

Question: And the GI50 [3]?
Answer: > 74.8 µM (inactive)

Question: And the GI50 [4]?
Answer: 27.5 µM (inactive)

Question: What about the GI50 [5] of the same compound?
Answer: 27.5 µM (inactive)

Question: And the GI50 [6]?
Answer: > 100 µM (inactive)

Question: And the GI50 [7]?
Answer: 12.4 µM (inactive)

Question: What about the GI50 [8] of the same compound?
Answer: 69.5 µM (inactive)

Question: What about the GI50 [9] of the same compound?
Answer: 8.49 µM (inactive)

Question: And the GI50 [10]?
Answer: 21.9 µM (inactive)

Question: What about the GI50 [11] of the same compound?
Answer: 3.38 µM (inactive)

Question: And the GI50 [12]?
Answer: > 83 µM (inactive)

Question: And the GI50 [13]?
Answer: 12.9 µM (inactive)

Question: What about the GI50 [14] of the same compound?
Answer: 20 µM (inactive)

Question: What about the GI50 [15] of the same compound?
Answer: 12.4 µM (inactive)

Question: And the GI50 [16]?
Answer: 16.8 µM (inactive)

Question: And the GI50 [17]?
Answer: 22.5 µM (inactive)

Question: What about the GI50 [18] of the same compound?
Answer: > 44.3 µM (inactive)

Question: What about the GI50 [19] of the same compound?
Answer: 9.68 µM (inactive)

Question: For `COc1cc(C(=O)C/C(CCC(=O)Nc2ccc(Cl)cc2Cl)=N/NC(=O)C(=O)NN)ccc1O`, which GI50 [1] is on record?
Answer: > 100 µM (inactive)

Question: What about the GI50 [2] of the same compound?
Answer: > 100 µM (inactive)

Question: What about the GI50 [3] of the same compound?
Answer: 97.7 µM (inactive)

Question: What about the GI50 [4] of the same compound?
Answer: > 100 µM (inactive)

Question: And the GI50 [5]?
Answer: > 100 µM (inactive)

Question: And the GI50 [6]?
Answer: > 100 µM (inactive)

Question: What about the GI50 [7] of the same compound?
Answer: > 100 µM (inactive)

Question: What about the GI50 [10] of the same compound?
Answer: > 100 µM (inactive)

Question: What about the GI50 [11] of the same compound?
Answer: 53.8 µM (inactive)

Question: What about the GI50 [12] of the same compound?
Answer: > 100 µM (inactive)

Question: And the GI50 [13]?
Answer: > 100 µM (inactive)

Question: And the GI50 [14]?
Answer: > 100 µM (inactive)

Question: What about the GI50 [15] of the same compound?
Answer: > 100 µM (inactive)

Question: And the GI50 [16]?
Answer: > 100 µM (inactive)

Question: And the GI50 [17]?
Answer: > 100 µM (inactive)

Question: What about the GI50 [18] of the same compound?
Answer: 46.2 µM (inactive)

Question: What does the source list for `COc1ccccc1NC(=O)/C(=C/c1ccccc1)C(C)=O`?
Answer: GI50 [1]: 38.6 µM (inactive); GI50 [2]: 37.1 µM (inactive); GI50 [3]: 45.4 µM (inactive); GI50 [4]: 47 µM (inactive); GI50 [5]: 53 µM (inactive); GI50 [6]: 44.5 µM (inactive); GI50 [7]: 23.6 µM (inactive); GI50 [8]: 38.5 µM (inactive); GI50 [9]: 30.1 µM (inactive); GI50 [10]: 32.3 µM (inactive); GI50 [11]: 32.9 µM (inactive); GI50 [12]: 36.1 µM (inactive); GI50 [13]: 25.2 µM (inactive); GI50 [14]: 64.4 µM (inactive); GI50 [15]: 19.1 µM (inactive); GI50 [16]: 62.4 µM (inactive); GI50 [17]: 27.7 µM (inactive); GI50 [18]: 35.1 µM (inactive); GI50 [19]: 35.5 µM (inactive)

Question: `Cc1ccc([N+](=O)[O-])cc1NC(=O)C(=O)C(C(=O)c1ccccc1F)C1OC(=O)c2ccccc21` (stereo not drawn) was tested. Which GI50 [2] did it give?
Answer: 16 µM (inactive)

Question: And the GI50 [3]?
Answer: 46 µM (inactive)

Question: And the GI50 [4]?
Answer: > 100 µM (inactive)

Question: And the GI50 [5]?
Answer: 59.7 µM (inactive)

Question: And the GI50 [6]?
Answer: 46.5 µM (inactive)

Question: And the GI50 [7]?
Answer: 26.9 µM (inactive)

Question: What about the GI50 [8] of the same compound?
Answer: 25.9 µM (inactive)

Question: What about the GI50 [9] of the same compound?
Answer: 36.1 µM (inactive)

Question: And the GI50 [10]?
Answer: 38.5 µM (inactive)

Question: And the GI50 [11]?
Answer: 33.7 µM (inactive)

Question: What about the GI50 [12] of the same compound?
Answer: 29.7 µM (inactive)

Question: And the GI50 [13]?
Answer: 66.8 µM (inactive)

Question: What about the GI50 [14] of the same compound?
Answer: 65 µM (inactive)

Question: And the GI50 [15]?
Answer: 38.5 µM (inactive)

Question: What about the GI50 [16] of the same compound?
Answer: 36.4 µM (inactive)

Question: And the GI50 [18]?
Answer: 53.8 µM (inactive)

Question: What about the GI50 [19] of the same compound?
Answer: 29.4 µM (inactive)

Question: With `CCCCc1c2c(nc3c1CCc1cc4cc5c(nc4nc1-3)-c1nc3c(c(CCCC)c1CC5)CCC/C3=C\c1ccccc1)/C(=C/c1ccccc1)CCC2` as the compound, how does the GI50 [1] read?
Answer: > 100 µM (inactive)

Question: And the GI50 [2]?
Answer: > 100 µM (inactive)

Question: And the GI50 [3]?
Answer: > 100 µM (inactive)

Question: And the GI50 [4]?
Answer: > 100 µM (inactive)

Question: And the GI50 [5]?
Answer: > 100 µM (inactive)

Question: And the GI50 [6]?
Answer: > 100 µM (inactive)

Question: What about the GI50 [7] of the same compound?
Answer: > 100 µM (inactive)

Question: And the GI50 [9]?
Answer: > 100 µM (inactive)

Question: And the GI50 [10]?
Answer: > 100 µM (inactive)

Question: What about the GI50 [11] of the same compound?
Answer: > 100 µM (inactive)

Question: And the GI50 [12]?
Answer: > 100 µM (inactive)

Question: What about the GI50 [13] of the same compound?
Answer: > 100 µM (inactive)

Question: And the GI50 [15]?
Answer: > 100 µM (inactive)

Question: And the GI50 [16]?
Answer: > 100 µM (inactive)

Question: What about the GI50 [17] of the same compound?
Answer: > 100 µM (inactive)

Question: And the GI50 [19]?
Answer: > 100 µM (inactive)

Question: With `COc1nc2[nH]ccc2c(=O)[nH]1` as the compound, how does the GI50 [2] read?
Answer: 0.41 µM (active)

Question: What about the GI50 [3] of the same compound?
Answer: > 100 µM (inactive)

Question: And the GI50 [4]?
Answer: > 100 µM (inactive)

Question: And the GI50 [5]?
Answer: > 100 µM (inactive)

Question: And the GI50 [7]?
Answer: > 100 µM (inactive)

Question: What about the GI50 [8] of the same compound?
Answer: > 100 µM (inactive)

Question: And the GI50 [9]?
Answer: > 100 µM (inactive)

Question: What about the GI50 [10] of the same compound?
Answer: > 100 µM (inactive)

Question: And the GI50 [12]?
Answer: > 100 µM (inactive)

Question: What about the GI50 [13] of the same compound?
Answer: > 100 µM (inactive)

Question: And the GI50 [14]?
Answer: > 100 µM (inactive)

Question: What about the GI50 [15] of the same compound?
Answer: > 100 µM (inactive)

Question: And the GI50 [16]?
Answer: > 100 µM (inactive)

Question: What about the GI50 [17] of the same compound?
Answer: > 100 µM (inactive)

Question: What about the GI50 [18] of the same compound?
Answer: > 100 µM (inactive)

Question: What about the GI50 [19] of the same compound?
Answer: > 100 µM (inactive)

Question: What does the source list for `CCOC(=O)COc1cccc2occc(=O)c12`?
Answer: GI50 [1]: > 100 µM (inactive); GI50 [3]: > 100 µM (inactive); GI50 [4]: > 100 µM (inactive); GI50 [5]: > 100 µM (inactive); GI50 [6]: > 100 µM (inactive); GI50 [7]: > 100 µM (inactive); GI50 [8]: > 100 µM (inactive); GI50 [9]: > 100 µM (inactive); GI50 [10]: > 100 µM (inactive); GI50 [11]: > 100 µM (inactive); GI50 [12]: > 100 µM (inactive); GI50 [13]: > 100 µM (inactive); GI50 [14]: > 100 µM (inactive); GI50 [15]: > 100 µM (inactive); GI50 [16]: > 100 µM (inactive); GI50 [17]: > 100 µM (inactive); GI50 [18]: > 100 µM (inactive); GI50 [19]: > 100 µM (inactive)

Question: What does the source list for `Cc1nc2sccn2c1C(=O)NN`?
Answer: GI50 [1]: > 100 µM (inactive); GI50 [2]: > 100 µM (inactive); GI50 [3]: > 100 µM (inactive); GI50 [4]: > 100 µM (inactive); GI50 [5]: > 100 µM (inactive); GI50 [6]: > 100 µM (inactive); GI50 [7]: > 100 µM (inactive); GI50 [8]: > 100 µM (inactive); GI50 [9]: > 100 µM (inactive); GI50 [10]: > 100 µM (inactive); GI50 [11]: > 100 µM (inactive); GI50 [12]: > 100 µM (inactive); GI50 [15]: > 100 µM (inactive); GI50 [16]: > 100 µM (inactive); GI50 [17]: > 100 µM (inactive); GI50 [18]: > 100 µM (inactive); GI50 [19]: > 100 µM (inactive)
